Several values for one entry are separate records, joined by “and”; a condition that tells them apart may be missing. Identical values can stand only once.
Legend:
[1] = tested on: B. anthracis Ames NR-3838 spores; set-up: species or system New Zealand White (NZW) rabbits; conditions: rabbit, in vivo
[2] = tested on: B. anthracis Ames NR-3838 spores; set-up: species or system New Zealand White (NZW) rabbits; conditions: rabbit, in vivo; remark: listed apart in the source
[3] = tested on: B. anthracis Ames spores (NR3838); set-up: species or system New Zealand White (NZW) rabbits; conditions: rabbit, in vivo
[4] = tested on: B. anthracis Ames spores (NR3838); set-up: species or system New Zealand White (NZW) rabbits; conditions: rabbit, in vivo; remark: listed apart in the source
[5] = tested on: B. anthracis Ames NR-3838 spores; conditions: rabbit, in vivo
[6] = tested on: B. anthracis; test: microbe, parasite or virus in culture; type: cell-based; conditions: Bacillus anthracis
[7] = tested on: B. anthracis Ames NR-3838 spores; set-up: species or system New Zealand White (NZW) rabbits; conditions: rabbit, in vivo; remark: listed apart in the source
[8] = tested on: B. anthracis Ames NR-3838 spores; set-up: species or system New Zealand White (NZW) rabbits; conditions: rabbit, in vivo; remark: listed apart in the source
[9] = tested on: B. anthracis Ames spores (NR3838); set-up: species or system New Zealand White (NZW) rabbits; conditions: rabbit, in vivo; remark: listed apart in the source
[10] = tested on: B. anthracis Ames spores (NR3838); set-up: species or system New Zealand White (NZW) rabbits; conditions: rabbit, in vivo; remark: listed apart in the source

Structure (SMILES)	survival [1] [%]	Average Bacterial Load (cfu/g), lung [2] [cfu/g]	overall survival rate [3] [%]	survival [3]	B. anthracis bacterial load in lymph node tissue [4] [cfu/g]	B. anthracis bacterial load in spleen tissue [4] [cfu/g]	peak of febrile response (core body temperature) [5] [°C]	MIC [6] [µg/mL]	animals positive for bacteremia [7]	average level of bacteremia, comparing only the two antibiotic-treated groups [7]	average bacterial load in the lung tissue, comparing only the two antibiotic-treated groups [2]	anthrax induced lesions (histopathology) [8]	bacteremia [9]	anthrax-related lesions (histopathology) [10]	maximum percent weight loss [5]
C[C@H]1COc2c(N3CCN(C)CC3)c(F)cc3c(=O)c(C(=O)O)cn1c23 [Levofloxacin]	100	6.93E+03	50	100% and 50%	0	0	~41	–	–	–	–	–	–	–	–
CCCCCCCCCCNCCNC1(C)CC(OC2C(Oc3c4cc5cc3Oc3ccc(cc3Cl)[C@@H](O)[C@@H](NC(=O)[C@@H](CC(C)C)NC)C(=O)N[C@@H](CC(N)=O)C(=O)N[C@H]5C(=O)N[C@H]3C(=O)N[C@H](C(=O)N[C@H](C(=O)O)c5cc(O)c(CNCP(=O)(O)O)c(O)c5-c5cc3ccc5O)[C@H](O)c3ccc(c(Cl)c3)O4)OC(CO)C(O)C2O)OC(C)C1O (some centres unmarked) [Vibativ, N^3″-[2-(decylamino)ethyl]-29-[[(phosphonomethyl)amino]methyl]vancomycin]	100	1.93E+03	67	100% and 60%	–	–	~41	< 0.0625	2 out of 12	significantly (p<0.05) lower	significantly (p<0.05) lower	mitigation of anthrax induced lesions	never developed bacteremia at a detectable level	generally mitigated	significantly (p<0.05) higher
